Results taken from patent publication US7591995B2, “Cobalamin conjugates useful as imaging and therapeutic agents” (Mayo Foundation for Medical Education and Research, priority 1999, dated 2009).

Assays:
[1] = system: unsaturated B12 binding capacity (UBBC); settings: relative to cyanocobalamin; J. Nucl. Med. 38, 717-723 (1997), US 5,739,313; cited from earlier work
[2] = system: unsaturated B12 binding capacity (UBBC); settings: relative to cyanocobalamin
[3] = Specific activity of radiolabeled cobalamin DTPA conjugates; settings: poly-DTPA complex, increased versus mono-DTPA compounds

## cyanocobalamin-DTPA
[1]
  in vitro biological activity (UBBC), comparison to cyanocobalamin: 66.4%

## cyanocobalamin-poly-L-lysine
[2]
  in vitro biological activity (UBBC) when compared to cyanocobalamin: 92%

## cyanocobalamin-poly-L-lysine-polyDTPA
[3]
  specific activity: 4.5 mCi
[2]
  in vitro biological activity (UBBC) when compared to cyanocobalamin: 43.4%
